Reference: patent US12709608B2, “4-amino pyrimidine compounds for the treatment of cancer” (University of Rochester, priority 2021, dated 2026)
“Also recorded” adds a separate entry of the source. Like-named read-outs stand apart in the source and are kept apart here.

How the values were obtained:
[1] = Biodistribution in brainstem and serum of mice, HPLC analysis of tissue extracts; format: in vivo; details: for concentration at 3 h: ip, 3 hours after intraperitoneal injection
Excerpt: Study of JMJD3 demethylase inhibitors. […] Because of its promising anti-tumor activities, GSK-J4 has been used to treat many kinds of tumors in preclinical models including T-cell acute lymphoblastic leukemia, acute myeloid leukemia, diffuse large B-cell lymphoma, neuroblastoma, prostate cancer, gastric cancer, and DIPG. The major challenge of GSK-J4 in clinical development is that GSK-J4 is a prodrug and is rapidly converted to the active drug […] in vivo (FIG. 1). […] The development of novel compounds such as UR-8 offered desirable properties including good cellular and brain transport which is essential to improving in vivo efficacy.
UR-8 was administered by intraperitoneal injection to mice that were euthanized at 3 hours following UR-8 administration. Their brains were immediately resected, the brainstem was dissected from the surrounding brain, and the serum was collected by cardiac puncture. […] GSK-J1 was highly detected in either serum and brainstem in the mice treated with GSK-J4 in compared to that of the mice treated with UR-8. GSK-J4 was not detected in any specimens from mice treated with GSK-J4.

[2] = test system: SF8628 intracranial (brainstem) tumor; assay: In vivo anti-tumor activity in patient-derived K27M DIPG xenografted mice; details: for Survival, log-rank test P, control vs. compound: vs vehicle control (DMSO)
Procedure: Mice with SF8628 intracranial (brainstem) tumor were randomized to four treatment groups: vehicle control (DMSO, n=7), GSK-J4 (100 mg/kg/day for 10 consecutive days, n=8), UR-8 (100 mg/kg/day for 10 consecutive days, n=8), and UR-17 (100 mg/kg/day for 10 consecutive days, n=8). FIG. 3 (A) Upper: Growth plots for intracranial tumors using tumor bioluminescence values. Lower: Corresponding tumor bioluminescence intensity overlay images for representative vehicle-treated, GSK-J4, UR-17, and UR-8-treated mice. FIG. 3 (B) Corresponding survival plots for each experiment. Statistical analysis was performed using a log-rank test: control vs. GSK-J4, **P=0.0094; control vs. UR-8, ***P=0.0002; control vs. UR-17, ***P=0.0008; GSK-J4 vs. UR-8, ***P=0.0008; UR-8 vs. UR-17, *P=0.0197. FIG. 3 (c) Effects of UR-8 on cell proliferation.
UR-8 inhibited tumor growth and prolonged survival of mice bearing human DIPG xenografts—Based on the biological effects of UR-analogs in vitro, it was hypothesized that UR-analogs would suppress tumor growth and increase survival in mice with orthotopic (brainstem) human DIPG xenografts. To determine in vivo anti-tumor activity of UR-analogs, the mice were implanted with SF8628 DIPG cells in the brainstem and were treated with 100 mg/kg of GSK-J4, UR-8, and UR-17 for 10 consecutive days.

[3] = test system: H3K27M DIPG cell lines (H3.3 K27M SF8628, H3.3 K27M DIPG-007, and H3.1 K27M SU-DIPGIV); assay: Inhibition of DIPG cell growth (cytotoxic activity), 72 hours treatment; format: cell-based; details: Homo sapiens; three H3K27M mutant DIPG cell lines (SF8628, DIPG-007, SU-DIPGIV), treated for 72 hours
Procedure: Specifically, UR-8 and UR-17 induced dose dependent inhibition of the growth of K27M DIPG cells—To determine the potential of the UR-analog series, UR-8 and UR-17 were selected for initial studies on DIPG cell growth. Thus, three H3K27M DIPG cell lines (H3.3 K27M SF8628, H3.3 K27M DIPG-007, and H3.1 K27M SU-DIPGIV) were treated with GSK-J4 (R&D System), UR-8, and UR-17 for 72 hours.

[4] = SF8628 brainstem xenograft, 100 mg/kg for 10 consecutive days
[5] = SF8628 brainstem xenograft, 100 mg/kg/day for 10 consecutive days

## CCOC(=O)CCNc1cc(N2CCc3ccccc3CC2)nc(-c2ccccn2)n1 [GSK-J4]
[1]; GSK-J4 treated mice, analyte GSK-J1, 3 hours after administration
  GSK-J1 concentration, Brainstem: 141.5 ± 50.2 ng/mL
[1]; GSK-J4 treated mice, analyte GSK-J1, 3 hours after administration, intraperitoneal
  GSK-J1 concentration, Serum: 31250 ± 18879 ng/mL
[1]; brainstem concentration as % of serum concentration, analyte GSK-J1, GSK-J4 treated mice
  Brain penetration ratio (GSK-J1): 0.61 ± 0.53%
[1]; mice euthanized at 3 hours after completion of GSK-J4 treatment
  Species found in brainstem tissue after GSK-J4 treatment: only GSK-J1
[1]; serum and brainstem, HPLC
  GSK-J4 detection in specimens from mice treated with GSK-J4: not detected
[2]; [4]
  Survival benefit of treated mice: substantial survival benefit
  Tumor growth rate (bioluminescence monitoring): reduced tumor growth rate
[2]; [5]
  Survival, log-rank test P, control vs. compound: 0.0094

## OCCCNc1cc(N2CCc3ccccc3CC2)nc(-c2ccccn2)n1 [UR-8, 3-((2-(pyridin-2-yl)-6-(1,2,4,5-tetrahydro-3H-benzo[d]azepin-3-yl)pyrimidin-4-yl)amino)propan-1-ol]
[1]; brainstem concentration as % of serum concentration, analyte UR-8, UR-8 treated mice
  Brain penetration ratio (UR-8): 8.77 ± 2.37%
[1]; mouse, brainstem relative to serum, intraperitoneal, brainstem concentration as % of serum concentration, analyte UR-8, UR-8 treated mice, read-out: Brain penetration ratio (UR-8)
  Kp at 3 h: 0.0877 ± 0.0237
[1]; mouse, brainstem, UR-8 treated mice, analyte UR-8, read-out: UR-8 concentration, Brainstem
  concentration at 3 h: 410 ± 244 ng/mL
[1]; mouse, serum, UR-8 treated mice, analyte UR-8, read-out: UR-8 concentration, Serum
  concentration at 3 h: 4460 ± 1580 ng/mL
[2]; [4]
  Survival benefit of treated mice: significant benefit
[2]; [5]
  Survival, log-rank test P, GSK-J4 vs. UR-8: 0.0008
  Survival, log-rank test P, UR-8 vs. UR-17: 0.0197
  Survival, log-rank test P, control vs. compound: 0.0002
[2]; intracranial (brainstem) human DIPG xenografted mice, comparison with GSK-J4 / UR-17
  Therapeutic benefit compared with the other compounds: outperforming either GSK-J4 or UR-17; also recorded: greater anti-tumor activity and survival benefit than that obtained by GSK-J4 treatment
[3]
  IC50: 4 to 6 µM
